Where two headings read alike, the source gives them in different places.
Tests used:
[1] = In vivo pharmacokinetic test; design: species or system SD rats; details: rats; for AUC(0-t) / Cmax / Tmax: SD, rat, plasma
Excerpt: The L-aspartate and hydrochloride according to the present invention were orally or intravenously administered to SD rats, respectively and blood samples were collected at a predetermined time to compare in vivo pharmacokinetics.
Then, Cmax: maximum drug concentration, Tmax: maximum drug concentration time, T1/2: drug half-life, AUCO-t: area under the plasma concentration-time curve from time zero to t hours, and AUCO-inf: area under the plasma concentration-time curve from time zero to infinity.

[2] = In vivo tissue distribution test; design: species or system ICR mice; details: ICR, mouse, spleen, po, 100 mg/kg; read-out: P ratio Spleen
[3] = Stability test in distilled water; format: physicochemical; details: 30 mg in 100 ml distilled water
Male ICR mice = assay: Single dose toxicity in mice (LD50); details: single intraperitoneal dose, observed 14 days
Method: The following experiment was performed in order to observe the degree of toxicity of the L-aspartate according to the present invention.
Male ICR mice were used as experimental animals. 5 male ICR mice were divided into 6 dose groups, respectively and fasted except for water for 24 hours.

[4] = In vivo tissue distribution test; design: species or system ICR mice; details: mouse, po; for Kp: ICR, 100 mg/kg
Method: An in vivo tissue distribution test was performed in order to confirm the degree of drug distribution of the L-aspartate and hydrochloride according to the present invention in each organ. After 8-week-old ICR mice were purchased and adapted in the laboratory, each salt was orally administered to the mouse at a dose of 100 mg/kg. The mice were bled and sacrificed at a predetermined time and each organ was drawn to measure the concentration in each organ. After the administration of hydrochloride and L-aspartate, each organ concentration over time, the area under the corresponding time-concentration curve, and the ratio of permeation into tissue were shown in Tables 5 and 6.
Then, P ratio is a ratio of permeation into muscle and calculated as intramuscular AUC/intraplasmic AUC.

[5] = test system: polychromatic erythrocyte with one or more nuclei (MNPCE); assay: In vivo genotoxicity, micronucleus test; details: male mice, intraperitoneal, 7.5 mg/kg
Excerpt: The following study performed to obtain in vivo genotoxicities, micronucleus test of L-aspartate and hydrochloric acid salt in male mice to the following procedure.

Solubility test = format: physicochemical; details: room temperature, water
[6] = male, testicle, ICR mice, p.o. 100 mg/kg, read-out: Testicle concentration
[7] = brain, ICR mice, p.o. 100 mg/kg, read-out: Brain concentration
[8] = heart, ICR mice, p.o. 100 mg/kg, read-out: Heart concentration
[9] = kidney, ICR mice, p.o. 100 mg/kg, read-out: Kidney concentration
[10] = liver, ICR mice, p.o. 100 mg/kg, read-out: Liver concentration
[11] = lung, ICR mice, p.o. 100 mg/kg, read-out: Lung concentration
[12] = muscle, ICR mice, p.o. 100 mg/kg, read-out: Muscle concentration
[13] = plasma, ICR mice, p.o. 100 mg/kg, read-out: Plasma concentration
[14] = spleen, ICR mice, p.o. 100 mg/kg, read-out: Spleen concentration
[15] = testicle, ICR mice, p.o. 100 mg/kg, read-out: Testicle concentration
[16] = thymus, ICR mice, p.o. 100 mg/kg, read-out: Thymus concentration

CON=C1CN(c2nc3c(cc2F)c(=O)c(C(=O)O)cn3C2CC2)C[C@@]1(C)CN.Cl [Hydrochloride (Comparative Example 3)]
AUC(0-t) ([1]; iv, i.v. 10 mg/kg): 8720 ± 330 ng·h/mL | Cmax ([1]; iv, i.v. 10 mg/kg): 4460 ± 960 ng/mL | Tmax ([1]; iv, i.v. 10 mg/kg): 0 h | AUC(0-t) ([1]; po, p.o. 100 mg/kg): 44400 ± 21400 ng·h/mL | Cmax ([1]; po, p.o. 100 mg/kg): 7620 ± 3930 ng/mL | Tmax ([1]; po, p.o. 100 mg/kg): 2.13 ± 1.97 h | BA (%) ([1]; p.o. 100 mg/kg, calculated by ratio of AUC0-t): 50.96% | Kp [2]: 8.66 | Content (%) 60? (after 3 weeks) ([3]; 60?, 3 weeks): 90.0% | Content (%) Initial ([3]; initial): 97.9% | Content (%) Room temperature (after 3 weeks) ([3]; room temperature, 3 weeks): 98.0% | Lethal dose 50 (Male ICR mice): 176 mg/kg | Kp ([4]; brain, read-out: P ratio Brain): 0.27 | Kp ([4]; heart, read-out: P ratio Heart): 4.19 | Kp ([4]; kidney, read-out: P ratio Kidney): 6.59 | Kp ([4]; liver, read-out: P ratio Liver): 10.5 | Kp ([4]; lung, read-out: P ratio Lung): 5.59 | Kp ([4]; muscle, read-out: P ratio Muscle): 3.92 | Kp ([4]; thymus, read-out: P ratio Thymus): 4.83 | Kp ([4]; male, testicle, read-out: P ratio Testicle): 1.7 | concentration at 0.5 h [4, 6]: 4790 ng/g | concentration at 1 h [4, 6]: 8360 ng/g | concentration at 8 h [4, 6]: 7770 ng/g | concentration at 0.5 h [4, 7]: 2510 ng/g | concentration at 1 h [4, 7]: 3090 ng/g | concentration at 1.5 h [4, 7]: 2720 ng/g | concentration at 2 hr [4, 7]: 3180 ng/g | concentration at 3 h [4, 7]: 1990 ng/g | concentration at 5 h [4, 7]: 1600 ng/g | concentration at 8 h [4, 7]: 730 ng/g | concentration at 0.5 h [4, 8]: 59300 ng/g | concentration at 1 h [4, 8]: 61200 ng/g | concentration at 1.5 hr [4, 8]: 52700 ng/g | concentration at 2 hr [4, 8]: 57600 ng/g | concentration at 3 h [4, 8]: 25500 ng/g | concentration at 5 h [4, 8]: 17300 ng/g | concentration at 8 h [4, 8]: 8860 ng/g | concentration at 0.5 h [4, 9]: 90800 ng/g | concentration at 1 h [4, 9]: 87800 ng/g | concentration at 1.5 h [4, 9]: 75500 ng/g | concentration at 2 hr [4, 9]: 69900 ng/g | concentration at 3 h [4, 9]: 43000 ng/g | concentration at 5 h [4, 9]: 32800 ng/g | concentration at 8 h [4, 9]: 18000 ng/g | concentration at 0.5 h [4, 10]: 161000 ng/g | concentration at 1 h [4, 10]: 125000 ng/g | concentration at 1.5 h [4, 10]: 113000 ng/g | concentration at 2 hr [4, 10]: 109000 ng/g | concentration at 3 h [4, 10]: 69000 ng/g | concentration at 5 h [4, 10]: 55700 ng/g | concentration at 8 h [4, 10]: 27000 ng/g | concentration at 0.5 h [4, 11]: 82800 ng/g | concentration at 1 h [4, 11]: 79500 ng/g | concentration at 1.5 h [4, 11]: 73600 ng/g | concentration at 2 hr [4, 11]: 63700 ng/g | concentration at 3 h [4, 11]: 38800 ng/g | concentration at 5 h [4, 11]: 23400 ng/g | concentration at 8 h [4, 11]: 11400 ng/g | concentration at 0.5 h [4, 12]: 39800 ng/g | concentration at 1 h [4, 12]: 52000 ng/g | concentration at 1.5 h [4, 12]: 50400 ng/g | concentration at 2 hr [4, 12]: 50800 ng/g | concentration at 3 h [4, 12]: 28300 ng/g | concentration at 5 h [4, 12]: 18400 ng/g | concentration at 8 h [4, 12]: 8260 ng/g | concentration at 0.5 h [4, 13]: 15500 ng/mL | concentration at 1 h [4, 13]: 14200 ng/mL | concentration at 1.5 h [4, 13]: 12100 ng/mL | concentration at 2 hr [4, 13]: 12000 ng/mL | concentration at 3 h [4, 13]: 6240 ng/mL | concentration at 5 h [4, 13]: 4320 ng/mL | concentration at 8 h [4, 13]: 2290 ng/mL | AUC(0-t) ([4]; plasma, ICR mice, p.o. 100 mg/kg, read-out: AUC0-t Plasma): 53600 ng·h/mL | concentration at 0.5 h [4, 14]: 102000 ng/g | concentration at 1 h [4, 14]: 112000 ng/g | concentration at 1.5 hr [4, 14]: 107000 ng/g | concentration at 2 hr [4, 14]: 102000 ng/g | concentration at 3 h [4, 14]: 59800 ng/g | concentration at 5 h [4, 14]: 42100 ng/g | concentration at 8 h [4, 14]: 21500 ng/g | concentration at 1.5 hr [4, 15]: 12700 ng/g | concentration at 2 hr [4, 15]: 17000 ng/g | concentration at 3 h [4, 15]: 14200 ng/g | concentration at 5 h [4, 15]: 12900 ng/g | concentration at 0.5 h [4, 16]: 24600 ng/g | concentration at 1 h [4, 16]: 58000 ng/g | concentration at 1.5 hr [4, 16]: 60800 ng/g | concentration at 2 hr [4, 16]: 61300 ng/g | concentration at 3 h [4, 16]: 38400 ng/g | concentration at 5 h [4, 16]: 25700 ng/g | concentration at 8 h [4, 16]: 12800 ng/g | MNPCE number [5]: singificantly increase | solubility (Solubility test): 93.3 mg/mL

Reference: patent US9751840B2, “R-7-(3-aminomethyl-4-methoxyimino-3-methyl-pyrrolidin-1-yl)-1-cyclopropyl-6-fluoro-4-oxo-acid and L-aspartic acid salt, process for the preparation thereof and pharmaceutical composition comprising the same for antimicrobial” (ARIBIO CO. LTD., priority 2009, dated 2017)
